Source: US12077503B2, “Substituted cyclic amides and their use as herbicides” (FMC CORPORATION, priority 2015, dated 2024)

Columns and labels:
Assay type in all cases: in vivo
[1] = tested on: barnyardgrass (Echinochloa crus-galli); assay: Test G Pre-Emergence Protocol; conditions: Echinochloa crus-galli, pre-emergence, 312 h, evaluated after 13 days; for pest or weed control at 15.625 g/ha: 15.625 g ai/ha, read-out: Barnyard grass damage rating (100=total damage to plant; 0=no damage to plant); for pest or weed control at 62.5 g/ha: 62.5 g ai/ha, 100=total damage to plant, 0=no damage to plant, read-out: plant damage rating, Barnyardgrass; for pest or weed control at 250 g/ha: 250 g ai/ha, read-out: Barnyardgrass damage rating (100=total damage to plant; 0=no damage to plant)
How it was run: (§1)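 Test compound in 0.5% Tween 20 acetone/water (50:50) was applied at three rates (15.625, 62.5, 250 g/ha) to soil sown one day earlier. After 13 days plants were scored for injury, where 0 means unaffected and 100 means completely damaged.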

[2] = tested on: ivy-leaved morning glory (Ipomoea hederacea); assay: Test G Pre-Emergence Protocol; conditions: Ipomoea, pre-emergence, 312 h, evaluated after 13 days; for pest or weed control at 62.5 g/ha: 62.5 g ai/ha, 100=total damage to plant, 0=no damage to plant, read-out: plant damage rating, Morningglory, Ivy-leaved; for pest or weed control at 250 g/ha: 250 g ai/ha, read-out: Morningglory, Ivy-leaved damage rating (100=total damage to plant; 0=no damage to plant); for pest or weed control at 15.625 g/ha: 15.625 g ai/ha, read-out: Morning-glory, Ivy-leaved damage rating (100=total damage to plant; 0=no damage to plant)
How it was run: as §1

[3] = tested on: redroot pigweed (Amaranthus retroflexus); assay: Test G Pre-Emergence Protocol; conditions: Amaranthus retroflexus, pre-emergence, 312 h, evaluated after 13 days; for pest or weed control at 15.625 g/ha: 15.625 g ai/ha; for pest or weed control at 15.625 g/ha / pest or weed control at 250 g/ha: read-out: Pigweed, Redroot damage rating (100=total damage to plant; 0=no damage to plant); for pest or weed control at 62.5 g/ha: 62.5 g ai/ha, 100=total damage to plant, 0=no damage to plant, read-out: plant damage rating, Pigweed, Redroot; for pest or weed control at 250 g/ha: 250 g ai/ha
How it was run: as §1

[4] = tested on: crabgrass, large (Digitaria sanguinalis); assay: Test A postemergence; conditions: Digitaria sanguinalis, post-emergence, 240 h, Postemergence; for pest or weed control at 125 g/ha: 125 g ai/ha, visual rating about 10 d after treatment, read-out: Crabgrass, Large plant response rating (0 to 100 scale); for pest or weed control at 500 g/ha: 500 g ai/ha, visual injury, 0 to 100 scale (0 no effect, 100 complete control), approx. 10 d, read-out: Plant response rating, Crabgrass, Large
How it was run: (§2)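 Compounds were formulated in a non-phytotoxic solvent mixture with surfactant and applied as a preemergence directed soil spray after seeding, or sprayed postemergence over plants 2 to 10 cm tall at the one- to two-leaf stage. Evaluation after about 10 d compared treated with untreated controls, using a scale from 0 (no effect) to 100 (complete control).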

[5] = tested on: morningglory (Ipomoea spp.); assay: Test A postemergence; conditions: Ipomoea, post-emergence, 240 h, Postemergence; for pest or weed control at 125 g/ha: 125 g ai/ha, visual rating about 10 d after treatment, read-out: Morningglory plant response rating (0 to 100 scale); for pest or weed control at 500 g/ha: 500 g ai/ha, visual injury, 0 to 100 scale (0 no effect, 100 complete control), approx. 10 d, read-out: Plant response rating, Morningglory
How it was run: as §2

[6] = tested on: velvetleaf (Abutilon theophrasti); assay: Test A postemergence; conditions: Abutilon theophrasti, post-emergence, 240 h, Postemergence; for pest or weed control at 125 g/ha: 125 g ai/ha, visual rating about 10 d after treatment, read-out: Velvetleaf plant response rating (0 to 100 scale); for pest or weed control at 500 g/ha: 500 g ai/ha, visual injury, 0 to 100 scale (0 no effect, 100 complete control), approx. 10 d, read-out: Plant response rating, Velvetleaf
How it was run: as §2

[7] = tested on: wheat (Triticum aestivum); assay: Test A preemergence; conditions: Triticum aestivum, pre-emergence, 240 h, 0 to 100 scale (0 no effect, 100 complete control), read-out: Plant response rating, Wheat; for plant injury at 500 g/ha: 500 g ai/ha, preemergence; for plant injury at 125 g/ha: Preemergence, 125 g ai/ha
How it was run: as §2

[8] = tested on: crabgrass, large (Digitaria sanguinalis); assay: Test A preemergence; conditions: Digitaria sanguinalis, pre-emergence, 240 h, 0 to 100 scale (0 no effect, 100 complete control), read-out: Plant response rating, Crabgrass, Large; for pest or weed control at 500 g/ha: 500 g ai/ha, preemergence; for pest or weed control at 125 g/ha: Preemergence, 125 g ai/ha
How it was run: as §2

[9] = tested on: morningglory (Ipomoea spp.); assay: Test A preemergence; conditions: Ipomoea, pre-emergence, 240 h, 0 to 100 scale (0 no effect, 100 complete control), read-out: Plant response rating, Morningglory; for pest or weed control at 500 g/ha: 500 g ai/ha, preemergence; for pest or weed control at 125 g/ha: Preemergence, 125 g ai/ha
How it was run: as §2

corn (Zea mays) = assay: Test A preemergence; conditions: Zea mays, pre-emergence, 240 h, 0 to 100 scale (0 no effect, 100 complete control); for Corn plant response rating (crop injury, 0 = no effect, 100 = complete kill) at 500 g/ha: 500 g ai/ha, preemergence; for Corn plant response rating (crop injury, 0 = no effect, 100 = complete kill) at 125 g/ha: Preemergence, 125 g ai/ha
How it was run: as §2

[10] = tested on: velvetleaf (Abutilon theophrasti); assay: Test A preemergence; conditions: Abutilon theophrasti, pre-emergence, 240 h, 0 to 100 scale (0 no effect, 100 complete control), read-out: Plant response rating, Velvetleaf; for pest or weed control at 500 g/ha: 500 g ai/ha, preemergence; for pest or weed control at 125 g/ha: Preemergence, 125 g ai/ha
How it was run: as §2

Row | SMILES | pest or weed control at 15.625 g/ha [1] [%] | pest or weed control at 62.5 g/ha [1] [%] | pest or weed control at 250 g/ha [1] [%] | pest or weed control at 62.5 g/ha [2] [%] | pest or weed control at 250 g/ha [2] [%] | pest or weed control at 15.625 g/ha [3] [%] | pest or weed control at 62.5 g/ha [3] [%] | pest or weed control at 250 g/ha [3] [%] | pest or weed control at 15.625 g/ha [2] [%] | pest or weed control at 125 g/ha [4] [%] | pest or weed control at 500 g/ha [4] [%] | pest or weed control at 125 g/ha [5] [%] | pest or weed control at 500 g/ha [5] [%] | pest or weed control at 125 g/ha [6] [%] | pest or weed control at 500 g/ha [6] [%] | plant injury at 500 g/ha [7] [%] | plant injury at 125 g/ha [7] [%] | pest or weed control at 500 g/ha [8] [%] | pest or weed control at 125 g/ha [8] [%] | pest or weed control at 500 g/ha [9] [%] | other results
1 | CN1C[C@@H](c2ccc(C(F)(F)F)cc2)[C@H](C(=O)Nc2cnccc2C(F)(F)F)C1=O (racemic) [Compound 1401] | 20 | 30 | 80 | 0 | 20 | 0 | 40 | 90 | – | – | – | – | – | – | – | – | – | – | – | – | –
2 | CN1C[C@H](c2cccc(C(C)(C)C#N)c2)[C@@H](C(=O)Nc2cccc(F)c2F)C1=O (racemic) [Compound 1497] | 0 | 30 | 80 | 0 | 20 | 0 | 0 | 0 | 0 | – | – | – | – | – | – | – | – | – | – | – | –
3 | CN1C[C@@H](c2ccc(C(F)(F)F)cc2)[C@H](C(=O)Nc2ccnc(Cl)c2Cl)C1=O (racemic) [Compound 1503] | 0 | 0 | 20 | 0 | 0 | 0 | – | 0 | – | – | – | – | – | – | – | – | – | – | – | – | –
4 | CN1C[C@@H](c2ccc(C(F)(F)F)cc2)[C@H](C(=O)Nc2ncc(C(F)(F)F)s2)C1=O (racemic) [Compound 1504] | 0 | 0 | 0 | 0 | 0 | 0 | 0 | 0 | 0 | – | – | – | – | – | – | – | – | – | – | – | –
5 | O=C1NCC(c2ccccc2)C1C(=O)Nc1cc(F)ccc1F (centres unmarked) [Compound 1359] | – | – | – | – | – | – | – | – | – | 0 | 0 | 0 | 0 | 0 | 0 | 0 | 0 | 20 | 0 | 0 | pest or weed control at 125 g/ha [9]: 0%; Corn plant response rating (crop injury, 0 = no effect, 100 = complete kill) at 500 g/ha (corn (Zea mays)): 0%; Corn plant response rating (crop injury, 0 = no effect, 100 = complete kill) at 125 g/ha (corn (Zea mays)): 0%; pest or weed control at 500 g/ha [10]: 0%; pest or weed control at 125 g/ha [10]: 0%
6 | O=C1NCC(c2ccccc2)C1C(=O)Nc1ccc(C(F)(F)F)cc1 (centres unmarked) [Compound 1362] | – | – | – | – | – | – | – | – | – | 0 | 0 | 0 | 0 | 0 | 0 | 0 | 0 | 0 | 0 | 0 | pest or weed control at 125 g/ha [9]: 0%; Corn plant response rating (crop injury, 0 = no effect, 100 = complete kill) at 500 g/ha (corn (Zea mays)): 0%; Corn plant response rating (crop injury, 0 = no effect, 100 = complete kill) at 125 g/ha (corn (Zea mays)): 0%; pest or weed control at 500 g/ha [10]: 0%; pest or weed control at 125 g/ha [10]: 0%
